# Reference: patent publication US9028845B2, “Chimeric immunomodulatory compounds and methods of using the same-IV” (Dynavax Technologies Corporation, priority 2001, dated 2015)
# Entries after “also recorded” stand apart in the source; their conditions may differ.
# What was measured:
# CD19+ B cells = test: Human B cell proliferation assay (3H-thymidine incorporation); settings: for cpm1 / cpm2 / cpm3 / mean cpm / mean of both: B cells, 2 μg/ml, Experiment B; for mean of both: mean of donors 121 and 194
# Experimental: Purified human B cells from 2 donors were stimulated with 5 μg/ml P-6 or CIC for 96 h. Proliferation was assessed by ^3H-thymidine incorporation.
# A CIC is considered to induce “little” human B cell proliferation if B cell proliferation in the presence of the CIC is between greater than 15 to about 30% of P-6.
# Human PBMCs were isolated from heparanized blood from two normal subjects. Some PBMCs were held in reserve while the remainder was incubated with CD19+ MACS beads (Miltenyi Biotec). These cells were then passed through a magnet, separating the CD19+ B cells through positive selection. […] B cells were then cultured at 1×10^5/200 μl/well in 96-well round-bottomed plates. In some cases, PBMCs were also cultured, but at 2×10^5/200 μl/well. Cells were stimulated in triplicate with 2 μg/ml polynucleotide or CIC. The culture period was 48 hours at 37° C. At the end of the culture period, the plates were pulsed with ^3H-thymidine, 1 μCi/well, and incubated for an additional 8 hours. Then the plates were harvested using standard liquid scintillation techniques and data was collected in counts per minutes (cpm).
# human PBMCs = test: Human PBMC cytokine response assay (IFN-γ and IFN-α in cell-free medium by ELISA), with or without cPLGA; assay type: cell-based;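 on IFN-α (pg/ml) mean: 20 µg/mL compound for 24 hours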;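 on IFN-γ (pg/ml) mean: 20 µg/mL compound for 24 hours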
# [1] = Table 24, mean of donors 28234-28237
# [2] = Table 25, mean of donors 28250-28253
# [3] = mean of donors 110, 112, 119, 120, Table 14
# [4] = mean of donors 28185-28188, Table 15
# [5] = mean of donors 28218-28221, 20 μg/ml, 24 h
# [6] = donor 28066, 20 ug/ml, 24 h, + PLGA = premixed with 100 μg/ml cPLGA
# [7] = donor 28067, 20 ug/ml, 24 h, + PLGA = premixed with 100 μg/ml cPLGA
# [8] = donor 28068, 20 ug/ml, 24 h, + PLGA = premixed with 100 μg/ml cPLGA
# [9] = mean of donors 28065-28068, 20 ug/ml, 24 h, + PLGA = premixed with 100 μg/ml cPLGA
substance,measurement,setting,value
5′-TCGTCG-3′-HEG-5′-TCGTCG-3′-HEG-5′-TCGTCG-3′ [Compound C-22],cpm1,CD19+ B cells; donor 121,17147 cpm
same,cpm2,CD19+ B cells; donor 121,14014 cpm
same,cpm3,CD19+ B cells; donor 121,6844 cpm
same,mean cpm,CD19+ B cells; donor 121 mean,12668 cpm
same,cpm1,CD19+ B cells; donor 194,6472 cpm
same,cpm2,CD19+ B cells; donor 194,5540 cpm
same,cpm3,CD19+ B cells; donor 194,3894 cpm
same,mean cpm,CD19+ B cells; donor 194 mean,5302 cpm
same,mean of both,CD19+ B cells,8985 cpm
same,IFN-α,"human PBMCs; Table 9, donor 28089",0 pg/mL
same,IFN-γ,"human PBMCs; Table 9, donor 28089",31 pg/mL
same,IFN-α,"human PBMCs; Table 9, donor 28090",46 pg/mL
same,IFN-γ,"human PBMCs; Table 9, donor 28090",15 pg/mL
same,IFN-α,"human PBMCs; Table 9, donor 28098",97 pg/mL
same,IFN-γ,"human PBMCs; Table 9, donor 28098",110 pg/mL
same,IFN-α,"human PBMCs; Table 9, donor 28099",247 pg/mL
same,IFN-γ,"human PBMCs; Table 9, donor 28099",91 pg/mL
same,IFN-α mean,"human PBMCs; Table 9, mean of donors",97 pg/mL
same,IFN-γ mean,"human PBMCs; Table 9, mean of donors",62 pg/mL
same,IFN-α,"human PBMCs; Table 10, donor 28042",12 pg/mL
same,IFN-γ,"human PBMCs; Table 10, donor 28042",206 pg/mL
same,IFN-α,"human PBMCs; Table 10, donor 28043",18 pg/mL
same,IFN-γ,"human PBMCs; Table 10, donor 28043",343 pg/mL
same,IFN-α,"human PBMCs; Table 10, donor 28044",67 pg/mL
same,IFN-γ,"human PBMCs; Table 10, donor 28044",736 pg/mL
same,IFN-α,"human PBMCs; Table 10, donor 28045",30 pg/mL
same,IFN-γ,"human PBMCs; Table 10, donor 28045",40 pg/mL
same,IFN-α mean,"human PBMCs; Table 10, mean of donors",32 pg/mL
same,IFN-γ mean,"human PBMCs; Table 10, mean of donors",331 pg/mL
same,"activity when formulated with cPLGA, in words",human PBMCs; formulated with cPLGA,induced considerable IFN-γ and IFN-α when formulated with cPLGA
same,"IFN-γ induction, in words",human PBMCs; used alone,induce IFN-γ when used alone
(5′-TCGTCGA-3′-HEG)2-glycerol-HEG-5′-TCGTCGA-3′ [Compound C-94],cpm1,CD19+ B cells; donor 121,11418 cpm
same,cpm2,CD19+ B cells; donor 121,14406 cpm
same,cpm3,CD19+ B cells; donor 121,11110 cpm
same,mean cpm,CD19+ B cells; donor 121 mean,12311 cpm
same,cpm1,CD19+ B cells; donor 194,7361 cpm
same,cpm2,CD19+ B cells; donor 194,8505 cpm
same,cpm3,CD19+ B cells; donor 194,5349 cpm
same,mean cpm,CD19+ B cells; donor 194 mean,7072 cpm
same,mean of both,CD19+ B cells,9692 cpm
same,"B cell proliferation (FIG. 11), in words","CD19+ B cells; purified human B cells, 5 μg/ml, 96 h",induce B cells to proliferate
same,"IFN-α induction (FIG. 10), in words","human PBMCs; PBMCs from 8 donors, 20 μg/ml, 24 h",induce high levels of IFN-α
same,IFN-α,"human PBMCs; Table 11, donor 28042",302 pg/mL
same,IFN-γ,"human PBMCs; Table 11, donor 28042",443 pg/mL
same,IFN-α,"human PBMCs; Table 11, donor 28043",252 pg/mL
same,IFN-γ,"human PBMCs; Table 11, donor 28043",198 pg/mL
same,IFN-α,"human PBMCs; Table 11, donor 28044",664 pg/mL
same,IFN-γ,"human PBMCs; Table 11, donor 28044",1417 pg/mL
same,IFN-α,"human PBMCs; Table 11, donor 28045",1855 pg/mL
same,IFN-γ,"human PBMCs; Table 11, donor 28045",888 pg/mL
same,IFN-α mean,"human PBMCs; Table 11, mean of donors",768 pg/mL
same,IFN-γ mean,"human PBMCs; Table 11, mean of donors",736 pg/mL
same,IFN-α,"human PBMCs; Table 24, donor 28234",16 pg/mL
same,IFN-γ,"human PBMCs; Table 24, donor 28234",7 pg/mL
same,IFN-α,"human PBMCs; Table 24, donor 28235",118 pg/mL
same,IFN-γ,"human PBMCs; Table 24, donor 28235",161 pg/mL
same,IFN-α,"human PBMCs; Table 24, donor 28236",548 pg/mL
same,IFN-γ,"human PBMCs; Table 24, donor 28236",239 pg/mL
same,IFN-α,"human PBMCs; Table 24, donor 28237",3631 pg/mL
same,IFN-γ,"human PBMCs; Table 24, donor 28237",1116 pg/mL
same,IFN-α mean,human PBMCs; [1],1078 pg/mL
same,IFN-γ mean,human PBMCs; [1],381 pg/mL
same,IFN-a,"human PBMCs; Table 25, donor 28250",245 pg/mL
same,IFN-g,"human PBMCs; Table 25, donor 28250, polynucleotides/spacers at amounts equivalent to the CIC, spacers alone 9 uM",340 pg/mL
same,IFN-a,"human PBMCs; Table 25, donor 28251",645 pg/mL
same,IFN-g,"human PBMCs; Table 25, donor 28251",60 pg/mL
same,IFN-a,"human PBMCs; Table 25, donor 28252",323 pg/mL
same,IFN-g,"human PBMCs; Table 25, donor 28252",287 pg/mL
same,IFN-a,"human PBMCs; Table 25, donor 28253",1198 pg/mL
same,IFN-g,"human PBMCs; Table 25, donor 28253",128 pg/mL
same,IFN-a mean,human PBMCs; [2],603 pg/mL
same,IFN-g mean,human PBMCs; [2],204 pg/mL
same,IFN-α induced relative to linear CIC C-21,human PBMCs; branched vs linear CIC with the same nucleic acid moieties,4 fold
same,IFN-α,"human PBMCs; donor 110, Table 14",1608 pg/mL
same,IFN-γ,"human PBMCs; donor 110, Table 14",5168 pg/mL
same,IFN-α,"human PBMCs; donor 112, Table 14",144 pg/mL
same,IFN-γ,"human PBMCs; donor 112, Table 14",284 pg/mL
same,IFN-α,"human PBMCs; donor 119, Table 14",2610 pg/mL
same,IFN-γ,"human PBMCs; donor 119, Table 14",104 pg/mL
same,IFN-α,"human PBMCs; donor 120, Table 14",878 pg/mL
same,IFN-γ,"human PBMCs; donor 120, Table 14",120 pg/mL
same,IFN-a,"human PBMCs; donor 28185, Table 15",1895 pg/mL
same,IFN-g,"human PBMCs; donor 28185, Table 15",181 pg/mL
same,IFN-a,"human PBMCs; donor 28186, Table 15",239 pg/mL
same,IFN-g,"human PBMCs; donor 28186, Table 15",61 pg/mL
same,IFN-a,"human PBMCs; donor 28187, Table 15",136 pg/mL
same,IFN-g,"human PBMCs; donor 28187, Table 15",384 pg/mL
same,IFN-a,"human PBMCs; donor 28188, Table 15",13 pg/mL
same,IFN-g,"human PBMCs; donor 28188, Table 15",17 pg/mL
same,IFN-a (pg/ml) 28218,"human PBMCs; donor 28218, 20 μg/ml, 24 h",32 pg/mL
same,IFN-g (pg/ml) 28218,"human PBMCs; donor 28218, 20 μg/ml, 24 h",15 pg/mL
same,IFN-a (pg/ml) 28219,"human PBMCs; donor 28219, 20 μg/ml, 24 h",167 pg/mL
same,IFN-g (pg/ml) 28219,"human PBMCs; donor 28219, 20 μg/ml, 24 h",39 pg/mL
same,IFN-a (pg/ml) 28220,"human PBMCs; donor 28220, 20 μg/ml, 24 h",633 pg/mL
same,IFN-g (pg/ml) 28220,"human PBMCs; donor 28220, 20 μg/ml, 24 h",44 pg/mL
same,IFN-a (pg/ml) 28221,"human PBMCs; donor 28221, 20 μg/ml, 24 h",412 pg/mL
same,IFN-g (pg/ml) 28221,"human PBMCs; donor 28221, 20 μg/ml, 24 h",269 pg/mL
same,IFN-α (pg/ml) mean,human PBMCs; [3],1310 pg/mL
same,IFN-γ (pg/ml) mean,human PBMCs; [3],1419 pg/mL
same,IFN-a (pg/ml) mean,human PBMCs; [4],571 pg/mL
same,IFN-g (pg/ml) mean,human PBMCs; [4],161 pg/mL
same,IFN-a (pg/ml) mean,human PBMCs; [5],311 pg/mL
same,IFN-g (pg/ml) mean,human PBMCs; [5],92 pg/mL
same,IFN-a (pg/ml) ×2,"human PBMCs; mean ×2, Table 15",1142 pg/mL
same,IFN-g (pg/ml) ×4,"human PBMCs; mean ×4, Table 15",644 pg/mL
same,"IFN-α induction, in words",human PBMCs; used alone,dramatically higher; also recorded: induced more IFN-α relative to linear CICs with HEG spacers; also recorded: HEG (C-94)>TEG (C-103)>C3 (C-104)=no linker (C-28)
5′-TCGTCG-3′-HME-5′-ACGTTCG-3′-HME-5′-AGATGAT-3′ [Compound C-25],cpm1,CD19+ B cells; donor 121,34360 cpm
same,cpm2,CD19+ B cells; donor 121,35016 cpm
same,cpm3,CD19+ B cells; donor 121,26480 cpm
same,mean cpm,CD19+ B cells; donor 121 mean,31952 cpm
same,cpm1,CD19+ B cells; donor 194,16060 cpm
same,cpm2,CD19+ B cells; donor 194,19509 cpm
same,cpm3,CD19+ B cells; donor 194,17384 cpm
same,mean cpm,CD19+ B cells; donor 194 mean,17651 cpm
same,mean of both,CD19+ B cells,24802 cpm
same,IFN-γ (pg/ml) 28065,"human PBMCs; donor 28065 (high background), 20 ug/ml, 24 h, + PLGA = premixed with 100 μg/ml cPLGA, 1000 = outside assay limits",541 pg/mL
same,IFN-α (pg/ml) 28065,"human PBMCs; donor 28065, 20 ug/ml, 24 h, + PLGA = premixed with 100 μg/ml cPLGA",11 pg/mL
same,IFN-α (pg/ml) 28066,human PBMCs; [6],0 pg/mL
same,IFN-γ (pg/ml) 28066,human PBMCs; [6],6 pg/mL
same,IFN-α (pg/ml) 28067,human PBMCs; [7],22 pg/mL
same,IFN-γ (pg/ml) 28067,human PBMCs; [7],19 pg/mL
same,IFN-α (pg/ml) 28068,human PBMCs; [8],79 pg/mL
same,IFN-γ (pg/ml) 28068,human PBMCs; [8],337 pg/mL
same,IFN-α (pg/ml) mean,human PBMCs; [9],28 pg/mL
same,IFN-γ (pg/ml) mean,human PBMCs; [9],226 pg/mL
